# Source: patent publication US20130102538A1, “METHOD OF TREATING ALZHEIMER'S DISEASE USING PHARMACOLOGICAL CHAPERONES TO INCREASE PRESENILIN FUNCTION AND GAMMA-SECRETASE ACTIVITY” (AMICUS THERAPEUTICS, INC., priority 2010, published 2013)
# Experiments:
# [1] = Brain concentration of compound A by LCMS; assay type: in vivo; conditions: C57BL6, mouse, oral, 30 mg/kg, mice, read-out: brain t1/2 (converted)
# Description: C57BL6 mice were treated by oral gavage of 30 mg/kg compound A (0.5% methylcellulose carrier) once a day for 4 consecutive days. After the final dose, nine groups of animals (5 animals per group) were sacrificed at different time points ranging from 15 min. post final dose up to 48 hours post final dose (plus an untreated group). Blood was collected and mouse brain samples were minced and homogenized in water using a FastPrep homogenizer (Thermo Scientific). Plasma and brain homogenates were extracted with acetonitrile for measurement of compound A concentrations by LCMS. For biochemical analysis, brains were homogenized (250 mM sucrose, 50 mM Tris, pH 7.5, 1 mM EDTA plus protease inhibitors) and separated into a membrane fraction and soluble fraction by ultracentrifugation at 100,000 g for 1 hr. […] Total protein was measured by BCA (Pierce) and 30 ug of each sample was separated by SDS/PAGE and analyzed by Western blot. […] Chemiluminescence data was imaged using an Alpha Innotech FluorChem Q imager and band quantification was carried out using densitometry software AlphaViewQ (Alpha Innotech). […] Abeta40 was quantified from diethylamine extracts using BetaMark Abeta40 ELISA kit (Covance); Abeta42 was quantified from diethylamine extracts using the High Sensitivity Abeta42 ELISA kit (Wako).
# γ-secretase [2] = experiment: In vivo brain α-CTF, Aβ40 and Aβ42 levels in mice after compound A; design: species or system C57BL6 mice
# Description: (§1) Mice were treated via gavage once daily for […] with 30 mg/Kg of compound A and then necropsied 0-48 hours after the final dose was administered.
# (§2) C57BL6 mice were treated by oral gavage of 30 mg/kg compound A (0.5% methylcellulose carrier) once a day for 4 consecutive days. After the final dose, nine groups of animals (5 animals per group) were sacrificed at different time points ranging from 15 min. post final dose up to 48 hours post final dose (plus an untreated group). Blood was collected and mouse brain samples were minced and homogenized in water using a FastPrep homogenizer (Thermo Scientific). Plasma and brain homogenates were extracted with acetonitrile for measurement of compound A concentrations by LCMS. For biochemical analysis, brains were homogenized (250 mM sucrose, 50 mM Tris, pH 7.5, 1 mM EDTA plus protease inhibitors) and separated into a membrane fraction and soluble fraction by ultracentrifugation at 100,000 g for 1 hr. The membrane fraction was solubilized in RIPA buffer (1% TX100, 0.5% Taurodexoycholate, 0.1% SDS in TBS+PI) and clarified by centrifugation. Total protein was measured by BCA (Pierce) and 30 ug of each sample was separated by SDS/PAGE and analyzed by Western blot. The following antibodies were used: PS1 ( 1/1000 Abcam no. Ab10281); calnexin ( 1/1000 Abcam no. Ab10286) and APP-CTF ( 1/1000 Anaspec 54096). Western blots were developed using an alkaline phosphatase anti-rabbit secondary and an alkaline phosphatase chemiluminescent substrate. Chemiluminescence data was imaged using an Alpha Innotech FluorChem Q imager and band quantification was carried out using densitometry software AlphaViewQ (Alpha Innotech). […] Abeta40 was quantified from diethylamine extracts using BetaMark Abeta40 ELISA kit (Covance); Abeta42 was quantified from diethylamine extracts using the High Sensitivity Abeta42 ELISA kit (Wako).
# presenilin 1 = molecular target: T1, presenilin 1 (Mus musculus, UniProt P49769); experiment: In vivo brain PS1 levels in mice after compound A, western blot; design: species or system C57BL6 mice; conditions: 30 mg/kg oral once daily 4 days
# T1 construct: brain levels of mature PS1 remain elevated for well after compound A and α-CTFs have returned to baseline levels; The mature form of presenlin is a heterodimer consisting of a ˜30 kDa NH2-terminal fragment (NTF) and a ˜20 kDa C-terminal fragment; from tissue; host or cells: brain membrane fraction of C57BL6 mice
# Description: as §1, §2
# γ-secretase [3] = molecular target: γ-secretase (Homo sapiens, UniProt P49768); experiment: γ-secretase inhibitory IC50 of compound A; conditions: γ-secretase inhibition, compared with brain levels
smiles,measurement,setting,value
"C[C@H](OC(=O)NCC(F)(F)C(F)(F)F)C(=O)N[C@@H]1C(=O)N(C)c2ccccc2-c2ccccc21 [Compound A, (S)-1-(((S)-5-methyl-6-oxo-6,7-dihydro-5H-dibenzo[b,d]azepin-7-yl)amino)-1-oxopropan-2-yl (2,2,3,3,3-pentafluoropropyl)carbamate]",half-life,[1],~3.5 h
same,reduction of brain Aβ42 levels relative to untreated controls,"γ-secretase [2]; 30 mg/kg oral once daily 4 days, 48 hrs after the final dose",40%
same,Aβ42/Aβ40 ratio in brain,"γ-secretase [2]; 30 mg/kg oral once daily 4 days, washout",reduced
same,time after final dose at which CTF levels begin to drop,"γ-secretase [2]; 30 mg/kg oral, brain α-CTFs",2 h
same,brain presenilin levels above untreated levels,presenilin 1; at 24 hours,50%
same,increase of brain presenilin levels,presenilin 1; within 1 hour of washout,50%
same,maximum increase of brain presenilin levels,presenilin 1; within 8 hours of washout,2 fold
same,IC50,γ-secretase [3],~60 nM
